Test results: US20160220677A1, “STABLE AQUEOUS COMPOSITIONS OF PROSTGLANDIN AGONIST PRODRUGS AND METHODS FOR USE THEREOF” (Allergan, Inc., priority 2009, published 2016)

Assay: Aqueous stability of formulations, % recovery by HPLC
Type: physicochemical
Settings: 30° C.; 45 days; each formulation (Formulations 1-4)
Protocol: The aqueous stability of invention compositions was evaluated using Compounds 2 and 3.
The formulations were analyzed by HPLC with the following measurement parameters:
Column: BioWidePore C18 (SUPELCO), 4.6 mm×25 cm, 5 μm Mobile Phase A: 0.1% (V/V) trifluoroacetic acid (TFA) in di-water, 0.8 micron filtered Mobile Phase B: 100% acetonitrile, 0.8 micron filtered Column temp: Ambient Injection volume: 30 μL
Flow: 1.0 mL/min Run time: 25 minutes Sample diluent: 50% acetonitrile in di-water
Using the above HPLC parameters, the following stability data was generated: […]

CCCCCC(O)c1ccc(N2C(=O)CC[C@@H]2CCCc2ccc(C(=O)OCCO)s2)cc1 (stereo partly shown) [Compound 2]
stability in each formulation: stable
